Patent publication US10098878B2, “HIF-2α inhibitors for treating iron overload disorders” (The Board of Regents of the University of Texas System, priority 2014, dated 2018)
Where two headings read alike, the source gives them in different places. Values belong to the compound of their own block, whether it stands above or below them.

Assays:
[1] = molecular target: T1, HIF-2α HIS TAG-PASB Domain (Homo sapiens, UniProt Q99814); assay: HIF-2α Scintillation Proximity Assay (SPA); type: binding; settings: 100 nM HIF-2α HIS TAG-PASB Domain
T1 construct: 100 nM HIF-2α HIS TAG-PASB Domain
Outline: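 IC50 values rest on percent inhibition, where the sample signal is scaled between high and low controls. Wells contain about 100 μL: compound dispensed as 2 μL of DMSO solution, 88 μL protein-probe mix and 10 μL of beads.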

786-0 cells = assay: VEGF ELISA Assay; type: cell-based; settings: VEGFA concentration in cell culture medium, read-out: VEGF ELISA EC50
Protocol: Each concentration had duplicated wells. About 20 hours later, medium was removed by suction and each well was supplied with 180 μL of growth medium. About 20 μl freshly-made 10× compound stocks were added to each well. […] The EC50 was calculated by GraphPad Prism using the dose-response-inhibition (four parameter) equation. The cell seeded plate was then subjected to CellTiter-Glo luminescence cell viability assay (Promega) by adding 50 μL of Celltiter Glo reagent into each well and shaking the plate for 8 minutes at 550 rpm (Thermomixer R, Eppendorf) then read luminescence signal in plate reader (3 second delay, 0.5 second/well integration time, Synergy 2 multi Detection Microplate reader) immediately.

786-O-Hif-Luc cells = assay: Luciferase Assay; type: cell-based; settings: 786-O-Hif-Luc cells, about 24 hours, read-out: Luciferase EC50
Protocol: A pool of infected cells were then selected against 2 μg/mL of puromycin (P8833, Sigma) for 10 days followed by limited dilution to select single clones.
Each concentration was tested in triplicate. After about 24 hours, luciferase activity was determined using ONE-Glo Luciferase Assay Reagent (E6110, Promega) following the manufacturer's recommended procedure. EC50 were calculated by using Dotmatics software.

[2] = 150 nM Compound 211 probe, read-out: SPA IC50
[3] = Homo sapiens, 786-0, 786-0 cells
[4] = SPA IC50, 150 nM Compound 211 probe

T1 sequence (Q99814 240-350 limits assumed): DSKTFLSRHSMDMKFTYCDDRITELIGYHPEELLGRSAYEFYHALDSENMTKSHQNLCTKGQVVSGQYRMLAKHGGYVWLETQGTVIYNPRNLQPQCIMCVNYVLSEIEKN

Compound: N#Cc1cncc(Oc2ccc(S(=N)(=O)C(F)(F)F)c3c2CC(F)(F)[C@H]3O)c1 (stereo partly drawn) [Compound 78, 5-(((1S)-2,2-difluoro-1-hydroxy-7-(S-(trifluoromethyl)sulfonimidoyl)-2,3-dihydro-1H-inden-4-yl)oxy)nicotinonitrile]
IC50 [1, 2]: 25 nM
EC50 (786-0 cells; [3]): 83 nM
EC50 (786-O-Hif-Luc cells; 24 h): 148 nM

Compound: N#Cc1cncc(Oc2ccc(S(=N)(=O)C(F)(F)F)c3c2CC(F)(F)[C@H]3O)c1 (stereo partly drawn) [Compound 79, 5-(((1S)-2,2-difluoro-1-hydroxy-7-(S-(trifluoromethyl)sulfonimidoyl)-2,3-dihydro-1H-inden-4-yl)oxy)nicotinonitrile]
IC50 [1, 2]: 23 nM
EC50 (786-0 cells; 786-0 cells): 116 nM
EC50 (786-O-Hif-Luc cells): 106 nM

Compound: N#Cc1cc(F)cc(Oc2ccc3c(c2Br)[C@@H](O)C(F)(F)S3(=O)=O)c1 [Compound 111, (R)-3-((4-bromo-2,2-difluoro-3-hydroxy-1,1-dioxido-2,3-dihydrobenzo[b]thiophen-5-yl)oxy)-5-fluorobenzonitrile]
IC50 [1, 2]: 7.2 nM
EC50 (786-0 cells; Homo sapiens, 786-0 cells): 64 nM
EC50 (786-O-Hif-Luc cells): 23 nM

Compound: CS(=O)(=O)c1ccc(Oc2cncc(Br)c2)c2c1[C@H](O)[C@H](F)[C@@H]2F [Compound 92, (1S,2S,3R)-4-((5-Bromopyridin-3-yl)oxy)-2,3-difluoro-7-(methylsulfonyl)-2,3-dihydro-1H-inden-1-ol]
IC50 [1, 2]: 32 nM
EC50 (786-0 cells; [3]): 187 nM
EC50 (786-O-Hif-Luc cells; 24 h): 162 nM

Compound: N#Cc1cc(F)cc(Oc2ccc(C(F)(F)F)c3c2CC(F)(F)[C@H]3O)c1 [Compound 37, 3-[(1S)-2,2-Difluoro-1-hydroxy-7-(trifluoromethyl)indan-4-yl]oxy-5-fluoro-benzonitrile]
IC50 [1, 2]: < 5 nM
EC50 (786-0 cells; [3]): 6 nM
EC50 (786-O-Hif-Luc cells; 24 h): 5 nM

Compound: CS(=O)(=O)c1ccc(Oc2cc(F)cc(Br)c2)c2c1[C@H](O)C(F)(F)C2 [Compound 68, (S)-4-(3-bromo-5-fluorophenoxy)-2,2-difluoro-7-(methylsulfonyl)-2,3-dihydro-1H-inden-1-ol]
IC50 [1, 2]: < 5 nM
EC50 (786-0 cells; [3]): 62 nM
EC50 (786-O-Hif-Luc cells; 24 h): 22 nM

Compound: CS(=O)(=O)c1ccc(Oc2cncc(C#N)c2)c2c1[C@H](O)C(F)(F)C2 [Compound 89, (S)-5-((2,2-Difluoro-1-hydroxy-7-(methylsulfonyl)-2,3-dihydro-1H-inden-4-yl)oxy)nicotinonitrile]
IC50 [1, 2]: 180 nM
EC50 (786-0 cells; [3]): 146 nM
EC50 (786-O-Hif-Luc cells; 24 h): 488 nM

Compound: CS(=O)(=NC#N)c1ccc(Oc2cc(F)cc(C#N)c2)c2c1[C@H](O)C(F)(F)C2 (single isomer, unassigned) [Compound 20]
IC50 [1, 2]: 27 nM
EC50 (786-0 cells; [3]): 67 nM
EC50 (786-O-Hif-Luc cells; 24 h): 28 nM

Compound: CS(=O)(=O)c1ccc(Oc2ccc(F)c(C#N)c2)c2c1[C@H](O)C(F)(F)[C@@H]2F [Compound 91, 2-Fluoro-5-(((1S,3R)-2,2,3-trifluoro-1-hydroxy-7-(methylsulfonyl)-2,3-dihydro-1H-inden-4-yl)oxy)benzonitrile]
IC50 [1, 2]: 28 nM
EC50 (786-0 cells; [3]): 273 nM
EC50 (786-O-Hif-Luc cells; 24 h): 129 nM

Compound: N#Cc1cc(F)cc(Oc2ccc3c(c2C(F)F)[C@@H](N)C(F)(F)S3(=O)=O)c1 [Compound 151, (R)-3-((3-Amino-4-(difluoromethyl)-2,2-difluoro-1,1-dioxido-2,3-dihydrobenzo[b]thiophen-5-yl)oxy)-5-fluorobenzonitrile]
IC50 [1, 2]: 69 nM
EC50 (786-0 cells; Homo sapiens, 786-0 cells): 680 nM
EC50 (786-O-Hif-Luc cells): 139 nM

Compound: N#Cc1cc(F)cc(Oc2ccc(S(=N)(=O)CF)c3c2CC(F)(F)[C@H]3O)c1 (single isomer, unassigned) [Compound 38]
IC50 [1, 2]: 94 nM
EC50 (786-0 cells; [3]): 1440 nM
EC50 (786-O-Hif-Luc cells; 24 h): 195 nM

Compound: N#Cc1cc(F)cc(Oc2ccc(S(=O)(=O)CF)c3c2CC(F)(F)[C@H]3O)c1 [Compound 3, (S)-3-((2,2-difluoro-7-((fluoromethyl)sulfonyl)-1-hydroxy-2,3-dihydro-1H-inden-4-yl)oxy)-5-fluorobenzonitrile]
IC50 [1, 4]: < 5 nM
EC50 (786-0 cells; [3]): 20 nM
EC50 (786-O-Hif-Luc cells; 24 h): 7 nM

Compound: N#Cc1cncc(Oc2ccc(C(F)(F)F)c3c2CC(F)(F)[C@H]3O)c1 [Compound 67, 5-[(1S)-2,2-difluoro-1-hydroxy-7-(trifluoromethyl)indan-4-yl]oxypyridine-3-carbonitrile]
IC50 [1, 2]: 37 nM
EC50 (786-0 cells; [3]): 64 nM
EC50 (786-O-Hif-Luc cells; 24 h): 35 nM

Compound: O=S(=O)(c1ccc(Oc2cncc(Cl)c2)c2c1[C@H](O)C(F)(F)C2)C(F)(F)F [Compound 9, (S)-4-((5-Chloropyridin-3-yl)oxy)-2,2-difluoro-7-((trifluoromethyl)sulfonyl)-2,3-dihydro-1H-inden-1-ol]
IC50 [1, 2]: < 5 nM
EC50 (786-0 cells; [3]): 13 nM
EC50 (786-O-Hif-Luc cells; 24 h): 11 nM

Compound: N#Cc1cc(F)cc(Oc2ccc(S(=O)(=O)C(F)(F)F)c3c2CC(F)(F)[C@H]3O)c1 [Compound 8, (S)-3-((2,2-Difluoro-1-hydroxy-7-((trifluoromethyl)sulfonyl)-2,3-dihydro-1H-inden-4-yl)oxy)-5-fluorobenzonitrile]
IC50 [1, 4]: < 5 nM
EC50 (786-0 cells; [3]): 4 nM
EC50 (786-O-Hif-Luc cells; 24 h): 3 nM

Compound: O=S1(=O)c2ccc(Oc3cc(F)cc(Cl)c3)c(C(F)F)c2C(O)C1(F)F (stereo not drawn) [Compound 128, 5-(3-Chloro-5-fluorophenoxy)-4-(difluoromethyl)-2,2-difluoro-3-hydroxy-2,3-dihydrobenzo[b]thiophene 1,1-dioxide]
IC50 [1, 4]: < 5 nM
EC50 (786-0 cells; Homo sapiens, 786-0 cells): 29 nM
EC50 (786-O-Hif-Luc cells): 17 nM

Next, values leading:

IC50 [1, 2]: 7.2 nM
EC50 (786-0 cells; [3]): 41 nM
EC50 (786-O-Hif-Luc cells; 24 h): 41 nM
Compound: CS(=O)(=O)c1ccc(Oc2cncc(Cl)c2)c2c1[C@H](O)C(F)(F)[C@@H]2F [Compound 95, (1S,3R)-4-((5-chloropyridin-3-yl)oxy)-2,2,3-trifluoro-7-(methylsulfonyl)-2,3-dihydro-1H-inden-1-ol]

IC50 [1, 2]: 47 nM
EC50 (786-0 cells; [3]): 95 nM
EC50 (786-O-Hif-Luc cells; 24 h): 88 nM
Compound: CS(=O)(=O)c1ccc(Oc2cncc(C#N)c2)c2c1[C@H](O)C(F)(F)[C@@H]2F [Compound 106, 5-(((1S,3R)-2,2,3-trifluoro-1-hydroxy-7-(methylsulfonyl)-2,3-dihydro-1H-inden-4-yl)oxy)nicotinonitrile]

IC50 [1, 2]: 6.7 nM
EC50 (786-0 cells; [3]): 123 nM
EC50 (786-O-Hif-Luc cells; 24 h): 42 nM
Compound: N#Cc1cncc(Oc2ccc(S(=O)(=O)CF)c3c2[C@@H](F)C(F)(F)[C@H]3O)c1 [Compound 108, 5-(((1S,3R)-2,2,3-trifluoro-7-((fluoromethyl)sulfonyl)-1-hydroxy-2,3-dihydro-1H-inden-4-yl)oxy)nicotinonitrile]

IC50 [1, 2]: 116 nM
EC50 (786-0 cells; [3]): 327 nM
EC50 (786-O-Hif-Luc cells; 24 h): 96 nM
Compound: N#Cc1cncc(Oc2ccc3c(c2Br)[C@@H](O)C(F)(F)S3(=O)=O)c1 [Compound 188, (R)-5-((4-Bromo-2,2-difluoro-3-hydroxy-1,1-dioxido-2,3-dihydrobenzo[b]thiophen-5-yl)oxy)nicotinonitrile]

IC50 [1, 2]: < 5 nM
EC50 (786-0 cells; [3]): 47 nM
EC50 (786-O-Hif-Luc cells; 24 h): 34 nM
Compound: CS(=O)(=O)c1ccc(Oc2cncc(F)c2)c2c1[C@H](O)C(F)(F)[C@@H]2F [Compound 93, (1S,3R)-2,2,3-trifluoro-4-((5-fluoropyridin-3-yl)oxy)-7-(methylsulfonyl)-2,3-dihydro-1H-inden-1-ol]

IC50 [1, 2]: 41 nM
EC50 (786-0 cells; [3]): 18 nM
EC50 (786-O-Hif-Luc cells; 24 h): 22 nM
Compound: CC1(O)c2c(ccc(Oc3cc(F)cc(F)c3)c2C#N)S(=O)(=O)C1(F)F (stereo not drawn) [Compound 210, 5-(3,5-Difluorophenoxy)-2,2-difluoro-3-hydroxy-3-methyl-2,3-dihydrobenzo[b]thiophene-4-carbonitrile 1,1-dioxide]

IC50 [1, 2]: 124 nM
EC50 (786-0 cells; [3]): 178 nM
EC50 (786-O-Hif-Luc cells; 24 h): 98 nM
Compound: O=S1(=O)c2ccc(Oc3cncc(Cl)c3)c(Br)c2[C@@H](O)C1(F)F [Compound 185, (R)-4-bromo-5-((5-chloropyridin-3-yl)oxy)-2,2-difluoro-3-hydroxy-2,3-dihydrobenzo[b]thiophene 1,1-dioxide]

IC50 [1, 2]: 11 nM
EC50 (786-0 cells; [3]): 77 nM
EC50 (786-O-Hif-Luc cells; 24 h): 47 nM
Compound: N#Cc1cc(F)cc(Oc2ccc3c(c2Cl)[C@@H](O)C(F)(F)S3(=O)=O)c1 [Compound 195, (R)-3-((4-chloro-2,2-difluoro-3-hydroxy-1,1-dioxido-2,3-dihydrobenzo[b]thiophen-5-yl)oxy)-5-fluorobenzonitrile]

IC50 [1, 2]: 24 nM
EC50 (786-0 cells; [3]): 136 nM
EC50 (786-O-Hif-Luc cells; 24 h): 125 nM
Compound: N#Cc1cncc(Oc2ccc(S(N)(=O)=O)c3c2[C@@H](F)C(F)(F)[C@H]3O)c1 [Compound 104, (1R,3S)-7-[(5-cyano-3-pyridyl)oxy]-1,2,2-trifluoro-3-hydroxy-indane-4-sulfonamide]

IC50 [1, 2]: < 5 nM
EC50 (786-0 cells; [3]): 87 nM
EC50 (786-O-Hif-Luc cells; 24 h): 68 nM
Compound: NC1c2c(ccc(Oc3cc(F)cc(F)c3)c2C(F)F)S(=O)(=O)C1(F)F (stereo not drawn) [Compound 129, 3-Amino-4-(difluoromethyl)-5-(3,5-difluorophenoxy)-2,2-difluoro-2,3-dihydrobenzo[b]thiophene 1,1-dioxide]
